From patent EP2319525A1, “Composition for treating insulin resistance” (Universitätsklinikum Hamburg-Eppendorf, priority 2009, dated 2011)
Side chains are listed from the residue outwards. Peptide text beside a SMILES is read from it. * marks the point of attachment. Nicotinoyl = O=C(c1cccnc1)*; Cbz = O=C(OCc1ccccc1)*

Columns and labels:
Type in all cases: cell-based, rodent
L6 myotubes [1] = assay: Uptake of H-3-labeled 2-Deoxy-D-glucose in differentiated L6 myotubes, short-term incubation (20 min + 10 min); conditions: CGP-42112A 10^-8 mol/L, alone and in combination with losartan 10^-7 mol/L
Protocol: The data presented below were generated in the rodent myoblast cell line L6 (ATCC #CRL-1458). […] L6 myotubes express both the AT-1 and the AT-2 receptor at relevant levels making these cells an ideal model to test the interference of both receptors with basal and insulin-mediated glucose uptake. L6 myoblasts were maintained as proliferating myoblasts in DMEM high glucose medium supplemented with 10% FCS, 4 mM L-glutamine, 1 mM pyruvate at 37°C in the presence of 5% CO2. The seeding density used for the experiments was 2 x 10^4 cells/cm^2 on 1% gelatincoated dishes. To induce differentiation of myoblasts into myotubes, 90-100% confluent cultures (cultured on standard 6-well plates) were switched to DMEM supplemented with 2% adult horse serum. […] The uptake of H-3-labeled 2-Deoxy-D-glucose (GE Healthcare Biosciences), which cannot undergo further glycolysis, was measured as follows: • H-3-labeled 2-Deoxy-D-glucose uptake in the differentiated myotubes was analysed as described previously ([…] et al., Diabetologia (2005); 48 (1) :132-9) with minor modifications. […] Cell lysates were transferred to scintillation vials for radioactivity counting. Non-specific uptake was determined in the presence of cytochalasin B (10 μmol/L) and was subtracted from all values. […] The uptake of H-3-labeled 2-Deoxy-D-glucose was measured as described in Example 1 above.

L6 myotubes [2] = assay: Long-term (24 hours) stimulation: basal and insulin-mediated uptake of H-3-labeled 2-Deoxy-D-glucose in L6 myotubes
Protocol: (§1) The data presented below were generated in the rodent myoblast cell line L6 (ATCC #CRL-1458). […] L6 myotubes express both the AT-1 and the AT-2 receptor at relevant levels making these cells an ideal model to test the interference of both receptors with basal and insulin-mediated glucose uptake. L6 myoblasts were maintained as proliferating myoblasts in DMEM high glucose medium supplemented with 10% FCS, 4 mM L-glutamine, 1 mM pyruvate at 37°C in the presence of 5% CO2. The seeding density used for the experiments was 2 x 10^4 cells/cm^2 on 1% gelatincoated dishes. To induce differentiation of myoblasts into myotubes, 90-100% confluent cultures (cultured on standard 6-well plates) were switched to DMEM supplemented with 2% adult horse serum. Myoblast growth and myotube formation were examined using phase-contrast microscopy. The medium was changed every 2 days, and differentiation was allowed to continue for 10 days before the experimentation period.
(§2) L6 myotubes (n=9-12) cultured as described in example 1 were incubated either with angiotensin II (10^-7 mol/l), with a combination of angiotensin II (10^-7 mol/l) and AT-1 receptor blocker losartan (10^-7 mol/L), or with a combination of angiotensin II (10^-7 mol/l), losartan (10^-7 mol/L) and AT-2 receptor blocker PD 123319 (10^-7 mol/L). The uptake of H-3-labeled 2-Deoxy-D-glucose (GE Healthcare Biosciences), which cannot undergo further glycolysis, was measured as follows: • H-3-labeled 2-Deoxy-D-glucose uptake in the differentiated myotubes was analysed as described previously (Ceddia et al., Diabetologia (2005); 48 (1) :132-9) with minor modifications. Differentiated myotubes were serum-starved overnight in DMEM containing 1% glucose before being incubated with angiotensin II, the AT-1 receptor blocker losartan, and/or the AT-2 receptor blocker PD123319. […] Cell lysates were transferred to scintillation vials for radioactivity counting. Non-specific uptake was determined in the presence of cytochalasin B (10 µmol/L) and was subtracted from all values. […]

L6 myotubes [3] = assay: Uptake of H-3-labeled 2-Deoxy-D-glucose in differentiated L6 myotubes, short-term incubation (20 min + 10 min)
Protocol: as §1, §2

[4] = PD 123319 10^-7 mol/L added to angiotensin II 10^-7 mol/L + losartan 10^-7 mol/L

CC[C@H](C)[C@H](NC(=O)[C@@H]1CCCN1C(=O)[C@H](Cc1c[nH]cn1)NC(=O)[C@H](CCCCNC(=O)[C@H](CCCNC(=N)N)NC(=O)OCc1ccccc1)NC(=O)[C@H](Cc1ccc(O)cc1)NC(=O)c1cccnc1)C(=O)O [CGP-42112A] (Nicotinoyl-YK([Arg-Cbz])HPI-OH)
glucose uptake compared with the effect of angiotensin II (L6 myotubes [1]): mimicked

Cc1cc(Cn2cnc3c2CC(C(=O)O)N(C(=O)C(c2ccccc2)c2ccccc2)C3)ccc1N(C)C (stereo not shown) [PD123319]
effect on the glucose uptake enhanced by angiotensin II in the presence of losartan (L6 myotubes [2]; [4]): completely absent | effect on the CGP-42112A-induced glucose uptake (L6 myotubes [3]; PD 123319 10^-7 mol/L added to CGP-42112A 10^-8 mol/L + losartan 10^-7 mol/L): completely blocked | effect on the glucose uptake enhanced by angiotensin II in the presence of losartan (L6 myotubes [3]; [4]): inhibited | uptake of H-3-labeled 2-Deoxy-D-glucose (L6 myotubes [3]; substance alone, 10^-7 mol/L, L6 myotubes, n=9-12): did not affect

CCCCc1nc(Cl)c(CO)n1Cc1ccc(-c2ccccc2-c2nn[nH]n2)cc1 [losartan]
basal glucose uptake of L6 myotubes (L6 myotubes [2]; losartan 10^-7 mol/L alone): induced | insulin-mediated glucose uptake of L6 myotubes (L6 myotubes [2]; losartan 10^-7 mol/L alone, insulin 1 µg/ml): induced
